Molecular target: T1, Prolyl 4-hydroxylase subunit alpha-1 (Gallus gallus, UniProt P16924)
T1 sequence (P16924 whole entry): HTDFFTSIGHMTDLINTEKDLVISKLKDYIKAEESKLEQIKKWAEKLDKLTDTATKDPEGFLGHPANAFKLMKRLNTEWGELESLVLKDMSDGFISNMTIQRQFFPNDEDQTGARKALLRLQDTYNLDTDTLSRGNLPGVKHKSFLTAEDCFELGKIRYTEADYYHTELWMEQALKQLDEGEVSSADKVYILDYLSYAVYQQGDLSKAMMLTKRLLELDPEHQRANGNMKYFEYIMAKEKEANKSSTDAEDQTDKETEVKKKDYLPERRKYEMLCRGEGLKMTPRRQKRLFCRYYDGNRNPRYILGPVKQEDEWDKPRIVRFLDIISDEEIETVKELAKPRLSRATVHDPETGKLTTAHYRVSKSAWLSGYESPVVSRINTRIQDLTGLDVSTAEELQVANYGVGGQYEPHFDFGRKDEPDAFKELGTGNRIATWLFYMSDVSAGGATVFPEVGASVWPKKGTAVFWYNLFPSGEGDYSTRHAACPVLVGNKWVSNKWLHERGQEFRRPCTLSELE
Test: Inhibition Assay
Excerpt: Inhibition assay using procollagen-prolin, 2-oxoglutarate 4-dioxygenase.

SMILES | Ki
Oc1cccc(O)c1 | 10200 µM
Oc1ccc(O)cc1 | 14000 µM
Oc1cccc(O)c1O | 30 µM
O=C(O)c1cccc(O)c1 | > 20000 µM
Oc1ccccc1O [1,2-Dihydroxybenzene, XI] | 25 µM
O=C(O)c1cccc(O)c1O [2,3-Dihydroxybenzoate, IV] | 70 µM
O=C(O)c1cc(O)ccc1O [2,5-Dihydroxybenzoate, VI] | 1400 µM
O=C(O)c1c(O)cccc1O [2,6-Dihydroxybenzoate, VII] | 1100 µM
O=C(O)/C=C/c1ccc(O)c(O)c1 [3,4-Dihydroxycinnamate, XVII] | 18 µM
O=C(O)C(O)c1ccc(O)c(O)c1 (stereo unspecified) [3,4-Dihydroxymandelate, XVI] | 9 µM
O=C(O)c1cc(O)cc(O)c1 [3,5-dihydroxybenzoic acid] | 9000 µM
O=C(O)CCc1ccc(O)c(O)c1 [3-(3,4-dihydroxyphenyl)propanoic acid] | 13 µM
O=C(O)c1ccc(O)cc1 [4-Hydroxybenzoate, III] | 3200 µM
O=C1OC(C(O)CO)C(O)C1O (stereo unspecified) [5-(1,2-Dihydroxy-ethyl)-3,4-dihydroxy-dihydro-furan-2-one] | > 20000 µM
O=C(O)[C@H](O)c1ccccc1 [(+)-Mandelate, XXI] | > 20000 µM
O=C(O)c1cc(O)c(O)c(O)c1 [Gallic Acid, F] | 30 µM
O=C(O)Cc1ccccc1 [Phenylacetate, XIX] | > 20000 µM
O=C(O)c1ccc(O)c(O)c1 [Protocatechuic acid (M1)] | 5 µM
O=C(O)Cc1ccc(O)c(O)c1 [SMR000326727] | 9 µM
O=C(O)c1ccc(O)cc1O [beta-Resorcylic acid] | 530 µM
O=C(O)c1ccccc1O [salicylic acid] | 2300 µM
